Data on 22 compounds can be found in patent publication US12440481B2, “Esters and carbamates as modulators of sodium channels” (VERTEX PHARMACEUTICALS INCORPORATED, priority 2019, dated 2025).

One may read the IC50 as the concentration at which inhibition is half-maximal.

Sequence of human NaV 1.8 (Q9Y5Y9 whole entry, looked up, the tested form may be a part): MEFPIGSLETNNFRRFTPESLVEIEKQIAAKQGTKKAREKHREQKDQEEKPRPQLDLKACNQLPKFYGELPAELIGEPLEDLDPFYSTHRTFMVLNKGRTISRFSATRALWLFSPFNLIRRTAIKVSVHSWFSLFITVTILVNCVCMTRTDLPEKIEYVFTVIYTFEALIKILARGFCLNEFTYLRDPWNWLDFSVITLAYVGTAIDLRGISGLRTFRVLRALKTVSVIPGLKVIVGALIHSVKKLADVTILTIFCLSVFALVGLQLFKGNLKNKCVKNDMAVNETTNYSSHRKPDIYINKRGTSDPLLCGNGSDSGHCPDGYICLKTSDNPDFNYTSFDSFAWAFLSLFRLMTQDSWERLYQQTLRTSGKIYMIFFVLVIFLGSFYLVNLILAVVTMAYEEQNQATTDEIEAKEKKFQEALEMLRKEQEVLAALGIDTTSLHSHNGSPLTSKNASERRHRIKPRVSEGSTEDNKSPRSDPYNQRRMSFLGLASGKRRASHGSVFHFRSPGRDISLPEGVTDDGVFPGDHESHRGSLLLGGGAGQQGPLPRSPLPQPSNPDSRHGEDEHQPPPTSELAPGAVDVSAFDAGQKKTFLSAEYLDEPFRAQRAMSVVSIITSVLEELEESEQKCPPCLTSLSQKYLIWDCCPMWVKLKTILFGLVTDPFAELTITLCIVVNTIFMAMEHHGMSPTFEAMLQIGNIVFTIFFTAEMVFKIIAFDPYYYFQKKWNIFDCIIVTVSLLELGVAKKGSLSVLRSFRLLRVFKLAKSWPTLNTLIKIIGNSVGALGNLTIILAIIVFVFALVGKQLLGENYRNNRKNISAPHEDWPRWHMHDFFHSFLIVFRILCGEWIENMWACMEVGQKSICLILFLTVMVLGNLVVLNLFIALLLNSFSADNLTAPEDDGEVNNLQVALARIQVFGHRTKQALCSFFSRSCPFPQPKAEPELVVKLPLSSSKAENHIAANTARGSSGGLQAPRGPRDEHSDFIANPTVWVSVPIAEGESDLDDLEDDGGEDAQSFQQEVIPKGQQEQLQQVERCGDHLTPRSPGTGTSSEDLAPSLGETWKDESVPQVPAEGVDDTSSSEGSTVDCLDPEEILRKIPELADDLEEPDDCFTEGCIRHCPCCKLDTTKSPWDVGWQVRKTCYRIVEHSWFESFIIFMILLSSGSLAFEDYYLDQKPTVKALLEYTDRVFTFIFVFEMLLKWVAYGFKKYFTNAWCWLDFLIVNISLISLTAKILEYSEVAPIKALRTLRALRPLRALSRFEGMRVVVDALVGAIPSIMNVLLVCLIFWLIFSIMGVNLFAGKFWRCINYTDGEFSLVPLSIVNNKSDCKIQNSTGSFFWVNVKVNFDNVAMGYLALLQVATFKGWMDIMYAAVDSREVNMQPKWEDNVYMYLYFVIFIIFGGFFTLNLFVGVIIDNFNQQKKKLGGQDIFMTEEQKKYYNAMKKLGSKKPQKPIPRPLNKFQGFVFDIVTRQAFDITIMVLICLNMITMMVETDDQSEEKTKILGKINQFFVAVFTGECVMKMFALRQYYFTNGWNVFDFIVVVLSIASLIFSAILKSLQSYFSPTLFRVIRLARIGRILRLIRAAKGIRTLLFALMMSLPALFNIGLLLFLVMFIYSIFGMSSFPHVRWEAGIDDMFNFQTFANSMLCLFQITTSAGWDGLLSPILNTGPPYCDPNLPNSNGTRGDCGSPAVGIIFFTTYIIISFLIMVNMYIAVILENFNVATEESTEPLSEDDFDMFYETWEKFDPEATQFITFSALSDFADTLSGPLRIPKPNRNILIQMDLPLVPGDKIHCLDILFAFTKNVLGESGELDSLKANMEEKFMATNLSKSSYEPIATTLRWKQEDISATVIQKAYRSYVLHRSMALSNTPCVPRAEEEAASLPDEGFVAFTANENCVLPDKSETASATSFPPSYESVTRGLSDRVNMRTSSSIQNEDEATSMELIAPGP

The target of this experiment is human NaV 1.8 (Homo sapiens, UniProt Q9Y5Y9). As to the kind of experiment: E-VIPR Assay for Detecting and Measuring NaV Inhibition Properties. The following applies: HEK cells expressing a truncated form of human NaV 1.8; HS = human serum; read-out: EVIPR HS IC50. It counts as cell-based. An excerpt:
E-VIPR Assay for Detecting and Measuring NaV Inhibition Properties
Sodium ion channels are voltage-dependent proteins that can be activated by inducing membrane voltage changes by applying electric fields. The electrical stimulation instrument and methods of use, referred to as E-VIPR, are described in International Publication No. WO 2002/008748 A3 and C.-J. Huang et al. Characterization of voltage-gated sodium channel blockers by electrical stimulation and fluorescence detection of membrane potential, 24 Nature Biotech. 439-46 (2006), both of which are incorporated by reference in their entirety. The instrument comprises a microtiter plate handler, an optical system for exciting the coumarin dye while simultaneously recording the coumarin and oxonol emissions, a waveform generator, a current- or voltage-controlled amplifier, and parallel electrode pairs that are inserted into assay plate wells. Under integrated computer control, this instrument passes user-programmed electrical stimulus protocols to cells within the wells of the microtiter plate.
16-20 hours prior to running the assay on E-VIPR, HEK cells expressing a truncated form of human NaV 1.8 with full channel activity were seeded into microtiter 384-well plates, pre-coated with matrigel, at a density of 25,000 cells per well. 2.5-5% KIR2.1 Bacmam virus was added to the final cell suspension before seeding into cell plates. HEK cells were grown in Dulbecco's Modified Eagle's Medium (DMEM) supplemented with 10% FBS (Fetal Bovine Serum, qualified; Sigma #F4135), 1% NEAA (Non-Essential Amino Acids, Gibco #11140), 1% HEPES (Gibco #15630), 1% Pen-Strep (Penicillin-Streptomycin; Gibco #15140) and 5 μg/ml Blasticidin (Gibco #R210-01). Cells were expanded in vented cap cell culture flasks, with 90-95% humidity and 5% CO2.
Reagents and Stock Solutions:
• 100 mg/mL Pluronic F-127 (Sigma #P2443), in dry DMSO • Compound Plates: Corning 384-well Polypropylene Round Bottom #3656 • Cell Plates: 384-well tissue culture treated plates (Greiner #781091-1B) • 2.5-5% KIR 2.1 Bacmam virus (produced in-house), prepared as described in Section 3.3 of J. A. Fornwald et al., Gene Expression in Mammalian Cells Using BacMam, a Modified Baculovirus System, 1350 Methods in Molecular Biology 95-116 (2016), the entire contents of which are incorporated by reference. The concentration used can be dependent on viral titer of each batch. • 5 mM DiSBAC6 (3), a voltage sensitive oxonol acceptor (CAS number 169211-44-3; 5-[3-(1,3-dihexylhexahydro-4,6-dioxo-2-thioxo-5-pyrimidinyl)-2-propen-1-ylidene]-1,3-dihexyldihydro-2-thioxo-4,6(1H,5H)-pyrimidinedione), in dry DMSO. The preparation of DiSBAC6 (3) is analogous to that of DiSBAC4 (3) as described in Voltage Sensing by Fluorescence Resonance Energy Transfer in Single Cells, Gonzalez, J. E. and Tsien, R. Y. (1995) Biophys. J. 69, 1272-1280. • 5 mM CC2-DMPE, a commercially available membrane-bound coumarin phospholipid FRET donor (ThermoFisher Scientific catalog number K1017, CAS number 393782-57-5; tetradecanoic acid, 1,1′-[(1R)-1-[8-(6-chloro-7-hydroxy-2-oxo-2H-1-benzopyran-3-yl)-3-hydroxy-3-oxido-8-oxo-2,4-dioxa-7-aza-3-phosphaoct-1-yl]-1,2-ethanediyl] ester) was prepared in dry DMSO. […]
For the compound `COC(=O)c1ccc(NC(=O)c2c(Oc3ccc(OC(F)(F)F)cc3OC)ccc(C(F)(F)F)c2F)cn1` [Compound 15, Methyl 5-[[2-fluoro-6-[2-methoxy-4-(trifluoromethoxy)phenoxy]-3-(trifluoromethyl)benzoyl]amino]pyridine-2-carboxylate], the 50% inhibitory concentration (IC50) was 100 to 500 nM.
With `[2H]C([2H])([2H])Oc1cc(OC(F)(F)F)ccc1Oc1cc(C(F)(F)F)c(F)cc1C(=O)Nc1ccnc(NC(=O)OC(C)(C)C)c1` [Compound 7, tert-butyl N-[4-[[5-fluoro-2-[2-(trideuteriomethoxy)-4-(trifluoromethoxy)phenoxy]-4-(trifluoromethyl)benzoyl]amino]-2-pyridyl]carbamate] the figure was ≥ 1000 nM; with `COC(=O)c1cc(NC(=O)c2c(Oc3ccc(OC(F)(F)F)cc3)ccc(C(F)(F)F)c2F)ccn1` [Compound 3, methyl 4-[[2-fluoro-6-[4-(trifluoromethoxy)phenoxy]-3-(trifluoromethyl)benzoyl]amino]pyridine-2-carboxylate], 100 to 500 nM.
With `COC(=O)c1cc(NC(=O)c2c(Oc3ccc(OC(F)(F)F)c(F)c3OC)ccc(C(F)(F)F)c2F)cc(C(=O)OC)n1` [Compound 35, dimethyl 4-(2-fluoro-6-(3-fluoro-2-methoxy-4-(trifluoromethoxy)phenoxy)-3-(trifluoromethyl)benzamido)pyridine-2,6-dicarboxylate] the figure was 100 to 500 nM; with `COC(=O)c1ccc(NC(=O)c2c(Oc3ccc(OC(F)(F)F)c(F)c3OC)ccc(C(F)(F)F)c2F)cn1` [Compound 14, Methyl 5-[[2-fluoro-6-[3-fluoro-2-methoxy-4-(trifluoromethoxy)phenoxy]-3-(trifluoromethyl)benzoyl]amino]pyridine-2-carboxylate], 100 to 500 nM.
With `COC(=O)c1cc(NC(=O)c2c(Oc3ccc(OC(F)(F)F)cc3Cl)ccc(C3CC3)c2C)c(C)cn1` [Compound 22, Methyl 4-[[6-[2-chloro-4-(trifluoromethoxy)phenoxy]-3-cyclopropyl-2-methyl-benzoyl]amino]-5-methyl-pyridine-2-carboxylate] the figure was ≥ 1000 nM.
Take `COC(=O)c1nccc(NC(=O)c2c(Oc3ccc(OC(F)(F)F)c(F)c3OC)ccc(C(F)(F)F)c2C)c1C` [Compound 32, methyl 4-(6-(3-fluoro-2-methoxy-4-(trifluoromethoxy)phenoxy)-2-methyl-3-(trifluoromethyl)benzamido)-3-methylpicolinate]: the IC50 is ≥ 1000 nM.
With `[2H]C([2H])([2H])Oc1cc(OC(F)(F)F)ccc1Oc1ccc(C(F)(F)F)c(F)c1C(=O)Nc1ccc(C(=O)OC)nc1` [Compound 11, methyl 5-[[2-fluoro-6-[2-(trideuteriomethoxy)-4-(trifluoromethoxy)phenoxy]-3-(trifluoromethyl)benzoyl]amino]pyridine-2-carboxylate] the figure was 100 to 500 nM; with `COC(=O)c1ccnc(NC(=O)c2c(Oc3ccc(OC(F)(F)F)c(F)c3OC)ccc(C(F)(F)F)c2F)c1` [Compound 23, Methyl 2-[[2-fluoro-6-[3-fluoro-2-methoxy-4-(trifluoromethoxy)phenoxy]-3-(trifluoromethyl)benzoyl]amino]pyridine-4-carboxylate], 500 to 1000 nM.
To `[2H]C([2H])([2H])Oc1cc(OC(F)(F)F)ccc1Oc1cc(C(F)(F)F)c(F)cc1C(=O)Nc1ccnc(C(=O)OC)c1` [Compound 6, methyl 4-[[5-fluoro-2-[2-(trideuteriomethoxy)-4-(trifluoromethoxy)phenoxy]-4-(trifluoromethyl)benzoyl]amino]pyridine-2-carboxylate] belongs 100 to 500 nM; to `COC(=O)c1cc(NC(=O)c2c(Oc3ccc(OC(F)(F)F)c(F)c3C)ccc(C(F)(F)F)c2F)c(C)cn1` [Compound 17, Methyl 4-[[2-fluoro-6-[3-fluoro-2-methyl-4-(trifluoromethoxy)phenoxy]-3-(trifluoromethyl)benzoyl]amino]-5-methyl-pyridine-2-carboxylate], < 100 nM; to `COC(=O)c1nccc(NC(=O)c2c(Oc3ccc(OC(F)(F)F)cc3OC)ccc(C(F)(F)F)c2F)c1C` [Compound 21, Methyl 4-[[2-fluoro-6-[2-methoxy-4-(trifluoromethoxy)phenoxy]-3-(trifluoromethyl)benzoyl]amino]-3-methyl-pyridine-2-carboxylate], ≥ 1000 nM.
With `COC(=O)c1cc(NC(=O)c2c(Oc3ccc(OC(F)(F)F)c(F)c3OC)ccc(C(F)(F)F)c2C)c(C2CC2)cn1` [Compound 28, methyl 5-cyclopropyl-4-(6-(3-fluoro-2-methoxy-4-(trifluoromethoxy)phenoxy)-2-methyl-3-(trifluoromethyl)benzamido)picolinate] the figure was ≥ 1000 nM.
Turning to `COC(=O)c1cc(NC(=O)c2c(Oc3ccc(OC(F)(F)F)cc3OC)ccc(C(F)(F)F)c2O)ccn1` [Compound 25, Methyl 4-[[2-hydroxy-6-[2-methoxy-4-(trifluoromethoxy)phenoxy]-3-(trifluoromethyl)benzoyl]amino]pyridine-2-carboxylate], the IC50 lay in the range of 100 to 500 nM.
Turning to `COC(=O)c1nccc(NC(=O)c2c(Oc3ccc(OC(F)(F)F)c(F)c3OC)ccc(C(F)(F)F)c2F)c1F` [Compound 30], the concentration for half-maximal inhibition (IC50) is 100 to 500 nM.
With `COC(=O)c1cc(NC(=O)c2c(Oc3ccc(OC(F)(F)F)c(F)c3Cl)ccc(C(F)(F)F)c2F)c(C)cn1` [Compound 20, Methyl 4-[[6-[2-chloro-3-fluoro-4-(trifluoromethoxy)phenoxy]-2-fluoro-3-(trifluoromethyl)benzoyl]amino]-5-methyl-pyridine-2-carboxylate] the figure was < 100 nM.
With `[2H]C([2H])([2H])Oc1cc(OC(F)(F)F)ccc1Oc1ccc(C(F)(F)F)cc1C(=O)Nc1ccc(C(=O)OC)nc1` [Compound 12, methyl 5-[[2-[2-(trideuteriomethoxy)-4-(trifluoromethoxy)phenoxy]-5-(trifluoromethyl)benzoyl]amino]pyridine-2-carboxylate] the figure was ≥ 1000 nM; with `COC(=O)c1nccc(NC(=O)c2c(Oc3ccc(OC(F)(F)F)cc3OC)ccc(C(F)(F)F)c2F)c1F` [Compound 29, methyl 3-fluoro-4-(2-fluoro-6-(2-methoxy-4-(trifluoromethoxy)phenoxy)-3-(trifluoromethyl)benzamido)picolinate], 500 to 1000 nM; with `COC(=O)c1ccc(NC(=O)c2c(Oc3ccc(F)cc3OC)ccc(C(F)(F)F)c2F)cn1` [Compound 10, methyl 5-[[2-fluoro-6-(4-fluoro-2-methoxy-phenoxy)-3-(trifluoromethyl)benzoyl]amino]pyridine-2-carboxylate], ≥ 1000 nM.
Turning to `COC(=O)c1nccc(NC(=O)c2c(Oc3ccc(F)c(F)c3C)ccc(C(F)(F)F)c2C)c1C` [Compound 19, Methyl 4-[[6-(3,4-difluoro-2-methyl-phenoxy)-2-methyl-3-(trifluoromethyl)benzoyl]amino]-3-methyl-pyridine-2-carboxylate], the IC50 was ≥ 1000 nM.
Consider `[2H]C([2H])([2H])Oc1cc(OC(F)(F)F)ccc1Oc1cc(C(F)(F)F)c(F)cc1C(=O)Nc1ccc(C(=O)OC)nc1` [Compound 1, Methyl 5-[[5-fluoro-2-[2-(trideuteriomethoxy)-4-(trifluoromethoxy)phenoxy]-4-(trifluoromethyl)benzoyl]amino]pyridine-2-carboxylate], for which the IC50 was ≥ 1000 nM.
With `COC(=O)c1cc(NC(=O)c2c(Oc3ccc(F)c(F)c3C)ccc(C(F)(F)F)c2C)c(C)cn1` [Compound 18, Methyl 4-[[6-(3,4-difluoro-2-methyl-phenoxy)-2-methyl-3-(trifluoromethyl)benzoyl]amino]-5-methyl-pyridine-2-carboxylate] the figure was 500 to 1000 nM.
